What was measured:
[1] = test system: lung cancer cell line A549; assay: In vitro cell inhibition assay (crystal violet), lung cancer A549; type: cell-based, human
Source text: (§1) In vitro Cell inhibition assay is as follows:
(§2) The human cancer cell lines used for this assay were bladder cancer J82, T24, prostate cancer LNCap, PC-3, lung cancer A549, H157, H460, H520, colon cancer HCT8, HCT116, RkO, and leukemia HL-60, etc.
(§3) In vitro cell culture technology was selected for the determination of inhibition rate bladder cancer cell lines J82 and T24, prostate cancer cell lines LNCap and PC-3, lung cancer cell lines A549, H157, H460 and H520. 1000 to 3000 cells were inoculated to 24-well plate, followed by addition of 1 mL culture medium well known to researchers in this field to each well, the cells were cultured in 5% incubator for 24 hours at 37° C., then the different concentration compounds and controls were added to each well. It should be noted that the added volume is not more than 0.5% of total volume. After completion of addition, the cells continued being cultured in incubator for one week, the culture medium was removed and washed by cold PBS of 1 mL once, and then fixed for 10 minutes at room temperature with 1% formalin, followed by wash with PBS of 1 mL. After fixation, stain was carried out with 0.1% crystal violet for 30 minutes. 0.1% crystal violet was recycled. The stained cells were washed gently with deionized water, dried at room temperature and kepted. The inhibition rate was calculated according to the foiling equation. The controls are Selumetinib (AZD6244), Gefitinib, Cisplatin. Inhibition rate=number of left cells each treatment/number of left cells of untreated control×100%

[2] = test system: lung cancer cell line H460; assay: In vitro cell inhibition assay (crystal violet), lung cancer H460; type: cell-based, human
Source text: as §1, §2, §3

[3] = test system: human leukemia HL-60 cells; assay: Proliferation inhibition of human leukemia HL-60 cells, MTT method; type: cell-based; settings: 48 h incubation, OPTI-MEM medium
Protocol: The inhibition rate of human leukemia HL-60 cells was evaluated by regular MTT method. The human leukemia HL-60 cells were picked up from cell incubator, after washed for twice using PBS, cells were digested by 0.25% trypsin, and then add medium to terminate the digestion. After cells were collected using centrifuge and re-suspended, counting cells under inverted microscope and adding medium to make a density which was 5×10^4 cells/mL. After 100 μL aliquots were added to each well of 96-well microtiter plates, cells were cultured in 5% incubator for overnight at 37° C., then the different concentration compounds were added to each well. After incubation for 48 h, MTT solution was added to each well and plates were then incubated for 4 h. The MTT tetrazolium was reduced to formazan by living cells. Then the formazan crystals were dissolved though adding DMSO to each well. The absorbance was read at 570 nm with a microplate reader.

[4] = test system: lung cancer cell line H520; assay: In vitro cell inhibition assay (crystal violet), lung cancer H520; type: cell-based, human
Source text: as §1, §2, §3

Structure (SMILES) | Proliferation inhibitory effect on human leukemia HL-60 cell (%) ([3]; concentration 1 μM) | Proliferation inhibitory effect on human leukemia HL-60 cell (%) ([3]; concentration 10 μM) | Proliferation inhibitory effect on human leukemia HL-60 cell (%) ([3]; concentration 100 μM) | other results
COC=C(C(=O)OC)c1ccccc1COc1ccc2c(-c3ccc(C)cc3)cc(=O)oc2c1 [28-136] | – | – | – | Inhibition rate on human cancer cells ([1]; A549, 2.5 μM): 100%; Inhibition rate on human cancer cells ([1]; A549, 5.0 μM): 100%
COC=C(C(=O)OC)c1ccccc1COc1ccc2c(-c3ccc(OC)cc3)cc(=O)oc2c1 [28-137] | – | – | – | Inhibition rate on human cancer cells ([1]; A549, 2.5 μM): 100%; Inhibition rate on human cancer cells ([1]; A549, 5.0 μM): 100%
COC=C(C(=O)OC)c1ccccc1COc1ccc2c(C)cc(=O)oc2c1 [Compound 28-2] | 6.0 | 49.2 | 71.3 | Inhibition rate on human cancer cells ([2]; H460, 5.0 μM): 95%
COC=C(C(=O)OC)c1ccccc1COc1ccc2c(C)cc(=O)oc2c1C [Compound 28-3] | 4.1 | 33.4 | 58.8 | –
COC=C(C(=O)OC)c1ccccc1COc1ccc2c(C)c(C)c(=O)oc2c1C [Compound 28-6] | 48.2 | 53.0 | 52.0 | –
CCc1c(C)c2ccc(OCc3ccccc3C(=COC)C(=O)OC)cc2oc1=O [Compound 28-18] | – | – | – | Inhibition rate on human cancer cells ([2]; H460, 0.25 μM): 80%; Inhibition rate on human cancer cells ([2]; H460, 0.5 μM): 90%; Inhibition rate on human cancer cells ([2]; H460, 1.0 μM): 95%; Inhibition rate on human cancer cells ([2]; H460, 2.5 μM): 95%; Inhibition rate on human cancer cells ([2]; H460, 5.0 μM): 95%; Inhibition rate on human cancer cells ([1]; A549, 0.5 μM): 90%; Inhibition rate on human cancer cells ([1]; A549, 1.0 μM): 100%; Inhibition rate on human cancer cells ([1]; A549, 2.5 μM): 100%; Inhibition rate on human cancer cells ([1]; A549, 5.0 μM): 100%; Inhibition rate on human cancer cells ([4]; H520, 0.25 μM): 50%; Inhibition rate on human cancer cells ([4]; H520, 0.5 μM): 95%; Inhibition rate on human cancer cells ([4]; H520, 1.0 μM): 100%; Inhibition rate on human cancer cells ([4]; H520, 2.5 μM): 100%; Inhibition rate on human cancer cells ([4]; H520, 5.0 μM): 100%
COC=C(C(=O)OC)c1ccccc1COc1ccc2cc(C#N)c(=O)oc2c1 [Compound 28-24] | 10.8 | 44.5 | 86.7 | –
COC=C(C(=O)OC)c1ccccc1COc1ccc2c(-c3ccc(F)cc3)cc(=O)oc2c1 [Compound 28-38] | 77.5 | 72.9 | 63.7 | –
COC=C(C(=O)OC)c1ccccc1COc1ccc2c(C)c(Cc3ccccc3)c(=O)oc2c1 [Compound 28-68] | 54.6 | 62.0 | 84.4 | –
COC=C(C(=O)OC)c1ccccc1COc1ccc2c(C)c(C(C)C)c(=O)oc2c1 [Compound 28-71] | 40.9 | 48.2 | 50.3 | –
CCCc1c(CCC)c2ccc(OCc3ccccc3C(=COC)C(=O)OC)cc2oc1=O [Compound 28-79] | 28.8 | 53.1 | 71.2 | –
COC=C(C(=O)OC)c1ccccc1COc1ccc2c(-c3ccc(Cl)nc3)cc(=O)oc2c1 [Compound 28-124] | 0.5 | 29.3 | 27.8 | Inhibition rate on human cancer cells ([2]; H460, 5.0 μM): 75%; Inhibition rate on human cancer cells ([4]; H520, 5.0 μM): 70%
COC=C(C(=O)OC)c1ccccc1COc1ccc2c3c(c(=O)oc2c1)CCC3 [Compound 28-125] | 47.0 | 73.8 | 85.0 | –
